PubChem BioAssay (NCI)
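Cells were grown in 96-well plates and exposed to each compound for 48 hours at five concentrations; endpoints were interpolated linearly between bracketing concentrations, or set to the highest concentration if not reached. The concentration for 50% growth inhibition is given as GI50. TGI: total growth inhibition.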

Experiments:
Assay in all cases: NCI anticancer screen, dose series, 48 h
[1] = tested on: 786-0 renal
[2] = tested on: A498 renal
[3] = tested on: CCRF-CEM leukemia
[4] = tested on: M14 melanoma
[5] = tested on: OVCAR-8 ovarian
[6] = tested on: U251 CNS
[7] = tested on: MCF7 breast
[8] = tested on: NCI/ADR-RES ovarian
[9] = tested on: RXF 393 renal
[10] = tested on: T-47D breast

COc1ccccc1NC(=O)C1=C(C)NC(C)=C(C(=O)Nc2ccccc2OC)C1c1cccc2c1OCO2
TGI [1]: > 100 µM
TGI [2]: > 100 µM
TGI [3]: > 100 µM
TGI [4]: > 100 µM
TGI [5]: > 100 µM
TGI [6]: > 100 µM

COc1cc2c(c(OC)c1OC)-c1ccc(SC)c(=O)cc1C(CC(=O)Oc1cccc(C#N)c1)C2 (stereo not drawn)
TGI [1]: > 100 µM
TGI [2]: 0.522 µM
TGI [3]: 5.33 µM
TGI [4]: > 88.8 µM
TGI [5]: 6.88 µM

O=C1OCC2=C1C(c1cccc(C(F)(F)F)c1)c1cc3c(cc1N2CCO)CCC3 (stereo not drawn)
GI50 [1]: 0.289 µM
TGI [1]: 8.13 µM
GI50 [2]: 0.0804 µM
TGI [2]: 0.397 µM
GI50 [3]: 0.217 µM
TGI [3]: 45.4 µM
GI50 [4]: 0.159 µM
TGI [4]: 6.2 µM
GI50 [7]: 0.17 µM
TGI [7]: 7.65 µM
GI50 [8]: 0.153 µM
TGI [8]: 6.82 µM
GI50 [5]: 0.203 µM
TGI [5]: 8.31 µM
GI50 [9]: 0.145 µM
TGI [9]: 8.38 µM
GI50 [6]: 0.199 µM
TGI [6]: 7.92 µM

CCOC(=O)[C@H]1Nc2ccc(Cl)cc2[C@H]2c3ccccc3O[C@H]21
TGI [1]: > 100 µM
TGI [4]: > 100 µM
TGI [5]: > 100 µM
TGI [9]: > 100 µM
TGI [6]: > 100 µM

CN(C)CCNC(=O)c1nc([N+](=O)[O-])cn1C
TGI [1]: > 100 µM
TGI [2]: > 100 µM
TGI [3]: > 100 µM
TGI [4]: > 100 µM
TGI [7]: > 100 µM
TGI [8]: > 100 µM
TGI [5]: > 100 µM
TGI [10]: > 100 µM
TGI [6]: > 100 µM

COC(=O)C1=Cc2c(cc(OC)c(OC)c2OC)[C@H](c2ccc(OC)c(OC)c2OC)C1C(=O)OC (stereo partly drawn)
TGI [1]: > 100 µM
TGI [2]: > 100 µM
TGI [3]: > 100 µM
TGI [4]: > 100 µM
TGI [5]: > 100 µM
TGI [9]: > 100 µM
TGI [6]: > 100 µM

Cc1cc2c(cc1Br)C1(C)CCC(C)C1(C)O2 (stereo not drawn)
TGI [1]: 66.8 µM
TGI [2]: > 100 µM
TGI [3]: 56.1 µM
TGI [4]: > 100 µM
TGI [5]: > 100 µM
TGI [9]: 32.1 µM
TGI [6]: 50.5 µM

Clc1cc(Cl)cc(Nc2nc3ccccc3nc2-c2cccs2)c1
TGI [1]: 31.7 µM
TGI [3]: > 100 µM
TGI [5]: 27 µM
TGI [9]: 39.9 µM

O=C1C=CC(=O)c2c1ncc1c2nc2sccn21
GI50 [1]: 15.5 µM
TGI [1]: 36.3 µM
GI50 [3]: 2.07 µM
TGI [3]: 6.62 µM
GI50 [4]: 15.7 µM
TGI [4]: 39.8 µM
GI50 [7]: 20.6 µM
TGI [7]: > 100 µM
GI50 [8]: 29.3 µM
TGI [8]: > 100 µM
GI50 [5]: 30.5 µM
TGI [5]: > 100 µM
GI50 [9]: 20.8 µM
TGI [9]: 64.8 µM
GI50 [10]: 31.9 µM
TGI [10]: > 100 µM
GI50 [6]: 18.3 µM
TGI [6]: 43.9 µM

C[Si]12OCCCN(CCO1)CCO2
TGI [1]: > 100 µM
TGI [2]: > 100 µM
TGI [3]: > 100 µM
TGI [5]: > 100 µM
TGI [9]: > 100 µM
TGI [6]: > 100 µM

Cc1ccc2nc(N/N=C/c3cccc(C)n3)cc(C)c2c1
TGI [1]: 33.7 µM
TGI [2]: 37.6 µM
TGI [4]: 46.9 µM
TGI [7]: 32.5 µM
TGI [8]: 48 µM
TGI [5]: 49.5 µM
TGI [9]: 31.6 µM
TGI [10]: 38.7 µM
TGI [6]: 33.4 µM

Cc1ccc(F)cc1NC(=O)c1cc(Cl)ccc1Nc1ccccc1
GI50 [1]: 52.1 µM
TGI [1]: > 100 µM
GI50 [3]: 20.2 µM
TGI [3]: > 100 µM
GI50 [7]: > 100 µM
TGI [7]: > 100 µM
GI50 [8]: > 100 µM
TGI [8]: > 100 µM
GI50 [5]: 58.8 µM
TGI [5]: > 100 µM
GI50 [9]: 74.7 µM
TGI [9]: > 100 µM
GI50 [10]: > 100 µM
TGI [10]: > 100 µM
GI50 [6]: > 100 µM
TGI [6]: > 100 µM

O=C(NC1(C(=O)O)CC1c1ccccc1)c1ccccc1 (stereo not drawn)
TGI [1]: > 100 µM
TGI [2]: > 100 µM
TGI [4]: > 100 µM
TGI [7]: > 100 µM
TGI [8]: > 100 µM
TGI [5]: > 100 µM
TGI [9]: > 100 µM
TGI [10]: > 100 µM
TGI [6]: > 100 µM

O=C(O)CCCNS(=O)(=O)c1ccc2ccccc2c1
TGI [1]: > 100 µM
TGI [2]: > 100 µM
TGI [3]: > 100 µM
TGI [4]: > 100 µM
TGI [5]: > 100 µM
TGI [9]: > 100 µM
TGI [6]: > 100 µM

N=C(N)c1ccc(-c2ccc(-c3ccc(F)cc3)o2)o1
GI50 [1]: 1.66 µM
TGI [1]: 3.49 µM
GI50 [2]: 1.9 µM
TGI [2]: 5.95 µM
GI50 [3]: 1.84 µM
TGI [3]: 5.57 µM
GI50 [4]: 1.23 µM
TGI [4]: 2.79 µM
GI50 [7]: 0.685 µM
TGI [7]: 2.38 µM
GI50 [8]: 1.67 µM
TGI [8]: 4.1 µM
GI50 [9]: 1.6 µM
TGI [9]: 3.4 µM
GI50 [6]: 1.6 µM
TGI [6]: 3.08 µM

COc1cc2c3c(n(CCCNCCNCCCN)c(=O)c2cc1OC)-c1cc2c(cc1C3=O)OCO2
GI50 [1]: 3.24 µM
TGI [1]: 14.5 µM
GI50 [4]: 3 µM
TGI [4]: 12.5 µM
GI50 [7]: 2.14 µM
TGI [7]: > 100 µM
GI50 [8]: 21.1 µM
TGI [8]: 94.6 µM
GI50 [5]: 2.39 µM
TGI [5]: 6.45 µM
GI50 [9]: 13 µM
TGI [9]: 93.1 µM
GI50 [10]: 2.72 µM
TGI [10]: 17.3 µM
GI50 [6]: 0.0177 µM
TGI [6]: 0.422 µM

CC1=CC2CC(C)C1(C)CCc1ccoc12 (stereo not drawn)
TGI [1]: > 100 µM
TGI [2]: > 100 µM
TGI [3]: > 100 µM
TGI [4]: > 100 µM
TGI [5]: > 100 µM
TGI [9]: > 100 µM
TGI [6]: > 100 µM

NC1=C(Cl)C(=O)c2ccccc2C1=O
TGI [1]: 20.2 µM
TGI [2]: 35.7 µM
TGI [3]: 32.5 µM
TGI [4]: 3.26 µM
TGI [7]: 5.25 µM
TGI [5]: 27.8 µM
TGI [9]: 18.8 µM
TGI [6]: 13.9 µM

CC(=O)O[C@H]1CC[C@@]2(C)C(=CC[C@@H]3C2CC[C@]2(C)Nc4[nH]ncc4CC32)C1 (stereo partly drawn)
TGI [1]: > 100 µM
TGI [2]: > 100 µM
TGI [3]: 40.3 µM
TGI [4]: 42.9 µM
TGI [5]: > 100 µM
TGI [9]: > 100 µM
TGI [6]: 30.7 µM

c1cncc(CNc2ncn[nH]2)c1
TGI [1]: > 100 µM
TGI [2]: > 100 µM
TGI [4]: > 100 µM
TGI [7]: > 100 µM
TGI [8]: > 100 µM
TGI [5]: > 100 µM
TGI [9]: > 100 µM
TGI [10]: > 100 µM
TGI [6]: > 100 µM

O=[N+]([O-])c1cccc(-c2cc(-c3cc(Br)ccc3O)[nH]n2)c1
GI50 [1]: 1.7 µM
TGI [1]: 4.08 µM
GI50 [2]: 1.86 µM
TGI [2]: 8.63 µM
GI50 [3]: 3.94 µM
TGI [3]: 19.9 µM
GI50 [4]: 2.08 µM
TGI [4]: 5.03 µM
GI50 [7]: 1.42 µM
TGI [7]: 7.05 µM
GI50 [8]: 3.11 µM
TGI [8]: 8.94 µM
GI50 [5]: 2.89 µM
TGI [5]: 10.5 µM
GI50 [10]: 2.64 µM
TGI [10]: 8.84 µM
GI50 [6]: 3.24 µM
TGI [6]: 11.9 µM

COc1ccc(-c2csc3c2-n2cccc2C3=O)cc1O
GI50 [1]: 0.0977 µM
TGI [1]: 25.2 µM
GI50 [2]: 1.13 µM
TGI [2]: 13.5 µM
GI50 [3]: 0.059 µM
TGI [3]: 0.4 µM
GI50 [7]: 0.0326 µM
TGI [7]: > 100 µM
GI50 [8]: 0.0143 µM
TGI [8]: > 100 µM
GI50 [5]: 0.0281 µM
TGI [5]: > 100 µM
GI50 [10]: 39.4 µM
TGI [10]: > 100 µM
GI50 [6]: 0.0332 µM
TGI [6]: > 47.4 µM
